Here are results for 6 molecules from the NIST ThermoML archive (doi:10.1016/j.fluid.2009.11.030).

The conditions of this data set: 101.33 kPa, Liquid, Vibrating tube method.

± gives the expanded uncertainty stated by the source.

On to `CC(C)CO` [2-methyl-1-propanol], for which the mass density (288.15 K) was 806.121 ± 0.14 kg/m3; the mass density (298.15 K) is reported as 798.409 ± 0.14 kg/m3; the mass density (313.15 K) worked out at 786.515 ± 0.15 kg/m3; the mass density (328.15 K) came to 774.113 ± 0.15 kg/m3; the mass density (338.15 K) stood at 765.452 ± 0.15 kg/m3; the mass density (348.15 K) came to 756.435 ± 0.16 kg/m3.

As for `CCCCO` [butan-1-ol], the mass density came out at 813.604 ± 0.11 kg/m3 (288.15 K); 805.984 ± 0.11 kg/m3 (298.15 K); 794.34 ± 0.12 kg/m3 (313.15 K); 782.323 ± 0.12 kg/m3 (328.15 K); 774.032 ± 0.13 kg/m3 (338.15 K); 765.48 ± 0.13 kg/m3 (348.15 K).

Turning to `CCOC(=O)CC(=O)OCC` [diethyl 1,3-propanedioate], the mass density runs as follows: (288.15 K) 1060.33 ± 0.061 kg/m3; (298.15 K) 1049.6 ± 0.057 kg/m3; (313.15 K) 1033.5 ± 0.051 kg/m3; (328.15 K) 1017.34 ± 0.045 kg/m3; (338.15 K) 1006.5 ± 0.042 kg/m3; (348.15 K) 995.631 ± 0.041 kg/m3.

Turning to `CCOC(C)=O` [ethyl acetate], the mass density is given as 906.547 ± 0.11 kg/m3 (288.15 K); 894.381 ± 0.12 kg/m3 (298.15 K); 875.812 ± 0.12 kg/m3 (313.15 K); 856.813 ± 0.13 kg/m3 (328.15 K); 843.858 ± 0.13 kg/m3 (338.15 K); 830.622 ± 0.14 kg/m3 (348.15 K).

Consider `CCCCCCC` [heptane], for which the mass density came to 688.254 ± 0.25 kg/m3 (288.15 K); 679.787 ± 0.25 kg/m3 (298.15 K); 666.893 ± 0.25 kg/m3 (313.15 K); 653.72 ± 0.26 kg/m3 (328.15 K); 644.767 ± 0.26 kg/m3 (338.15 K); 635.631 ± 0.26 kg/m3 (348.15 K).

`CCCCCO` [pentan-1-ol]: the mass density by setting is: (288.15 K) 819.154 ± 0.14 kg/m3; (298.15 K) 811.8 ± 0.14 kg/m3; (313.15 K) 800.574 ± 0.14 kg/m3; (328.15 K) 789.007 ± 0.15 kg/m3; (338.15 K) 781.05 ± 0.15 kg/m3; (348.15 K) 772.873 ± 0.15 kg/m3.

What is called mass density is mass per unit of volume.
